What was measured:
L. major promastigotes = experiment: AlamarBlue assay, antileishmanial activity against L. major promastigotes; assay type: cell-based, Leishmania major; settings: for IC50: mean of two independent experiments; for Selectivity index SI: SI = IC50 for J774.1/IC50 for L. major (promastigotes)
Description: (§1) Antileishmanial activities of the synthesized compounds were evaluated in L. major promastigotes as described before and in L. donovani promastigotes according to Hazra et al.. […] The antiprotozoal activities are presented in Table 1, Table 2 and Table 3 as inhibitory concentrations (IC50). […] Materials and methods for the biological assays have been described before by the authors. […] The protocol for the L. donovani quantitative colorimetric assay is outlined by Hazra et al.. The IC50 values are presented as mean values of two independent experiments against the parasite and macrophages.

[1] = tested on: L. donovani promastigotes; experiment: Quantitative colorimetric assay against L. donovani promastigotes; assay type: cell-based; settings: mean of two independent experiments
Description: as §1

[2] = AlamarBlue cytotoxicity assay on J774.1 macrophages; assay type: cell-based, murine; settings: mouse, J774.1 macrophage cell line, mean of two independent experiments
J774.1 murine cell line = experiment: as above; assay type: cell-based
L. major amastigotes = experiment: L. major amastigote assay; assay type: cell-based, Leishmania major; settings: for IC50: Leishmania major; for Selectivity index SI: SI = IC50 for BMDM/IC50 for L. major (amastigotes)
[3] = Cytotoxicity against bone marrow derived macrophages (BMDM); assay type: cell-based, murine; settings: mouse
Text: The amastigote is the intracellular pathogenic form of the parasite in the vertebrate host and therefore the important target. […] With regard to antileishmanial activity cinnamic acid menthyl (20) and […] (19) show good activities combined with low cytotoxicity. […] Materials and methods for the biological assays have been described before by the authors. […] The protocol for the L. donovani quantitative colorimetric assay is outlined by Hazra et al.. The IC50 values are presented as mean values of two independent experiments against the parasite and macrophages.

[4] = tested on: cysteine-cathepsin (L. major promastigote full-lysate); experiment: Cysteine-cathepsin fluorescence activity assay with L. major promastigote full-lysate; assay type: biochemical, Leishmania major; settings: preliminary experiments, result in words

With `CN(C)c1ccc(C=CC(=O)OC2CC3CCC2(C)C3(C)C)cc1` (stereo not drawn) [Compound 5, 4-N-Dimethylaminocinnamic Acid (−)-bornyl Ester] the melting point was 114 to 116 °C, the IC50 (L. major promastigotes; Leishmania major) was greater than 100 µM and the IC50 ([1]; Leishmania donovani) was greater than 100 µM. It also gave an IC50 [2] greater than 100 µM.

Compound `CC1(C)C2CCC1(C)[C@H](OC(=O)/C=C/c1cccc(Cl)c1Cl)C2` (stereo partly drawn) [Compound 14, 2,3-Dichlorocinnamic acid (−)-bornyl ester] has a melting point of 86 to 87 °C, an IC50 (L. major promastigotes; Leishmania major) of 65.6 µM and an IC50 ([1]; Leishmania donovani) greater than 100 µM. The IC50 [2] was 58.9 µM.

`CC(=O)Oc1ccc(/C=C/C(=O)O[C@@H]2CC3CCC2(C)C3(C)C)cc1OC(C)=O` (stereo partly drawn) [Compound 28, 3-(3,4-Bis(acetyloxy))phenyl Propenoic Acid (−)-Bornyl Ester] gave an IC50 (L. major promastigotes; Leishmania major) of 30.7 µM and an IC50 [2] of 2.1 µM.

Work on `CC1(C)C2CCC1(C)[C@@H](OC(=O)/C=C/c1ccccc1)C2` (stereo partly drawn) [Compound 18, Cinnamic Acid Isobornyl Ester] yielded an IC50 (L. major promastigotes; Leishmania major) of 64.3 µM, an IC50 ([1]; Leishmania donovani) of 51.2 µM and an IC50 [2] of 46 µM.

For `CC1(C)C2CCC1(C)C(OC(=O)CCc1ccccc1)C2` (stereo not drawn) [Compound 27], the IC50 (L. major promastigotes; Leishmania major) was 50.2 µM, the “Selectivity index SI” value (L. major promastigotes) was greater than 2.0 and the IC50 [2] was greater than 100 µM. The “cytotoxicity J774.1 (in words)” value (J774.1 murine cell line; result in words) was “did not show cytotoxicity”.

`CC1(C)C2CCC1(C)C(OC(=O)C=Cc1ccc([N+](=O)[O-])cc1)C2` (stereo not drawn) [Compound 9, 4-Nitrocinnamic Acid Isobornyl Ester] gave a melting point of 121 to 123 °C, an IC50 (L. major promastigotes; Leishmania major) greater than 100 µM and an IC50 ([1]; Leishmania donovani) greater than 100 µM. The IC50 [2] was greater than 100 µM.

In the case of `Cc1ccc(C(C)C)c(OC(=O)/C=C/c2ccc(O)c(O)c2)c1` [Compound 10, Caffeic Acid Thymyl Ester], the melting point is reported as 115 to 117 °C, the IC50 (L. major amastigotes) is reported as 54.1 µM and the “Selectivity index SI” value (L. major amastigotes) is reported as 0.2. The IC50 (L. major promastigotes; Leishmania major) was 57.6 µM, the IC50 ([1]; Leishmania donovani) was 42.1 µM and the IC50 [2] was 9.5 µM. For the same compound, the IC50 [3] was 9.8 µM.

Compound `CC1CCC(C(C)C)C(OC(=O)/C=C/c2ccc(O)c(O)c2)C1` (stereo not drawn) [Compound 12, Caffeic Acid Menthyl Ester] has an IC50 (L. major promastigotes; Leishmania major) of 59.5 µM, an IC50 ([1]; Leishmania donovani) of 79.4 µM and an IC50 [2] of 1.95 µM.

With `CC1(C)C2CCC1(C)C(OC(=O)C=Cc1ccccc1)C2` (stereo not drawn) [Compound 15, Cinnamic Acid (−)-Bornyl Ester] the protease inhibitory activity [4] was “showed protease inhibitory activity”, the IC50 (L. major amastigotes) was 10.9 µM and the “Selectivity index SI” value (L. major amastigotes) was 5.0. For the same compound, the IC50 (L. major promastigotes; Leishmania major) was 39.6 µM, the “Selectivity index SI” value (L. major promastigotes) was 1.1 and the IC50 [2] was 45.2 µM. For the same compound, the IC50 [3] was 54.3 µM.

For `COc1ccc(/C=C/C(=O)OC2CC(C)CCC2C(C)C)cc1O` (stereo not drawn) [Compound 13, Isoferulic Acid Menthyl Ester], the IC50 (L. major promastigotes; Leishmania major) was 54.2 µM, the IC50 ([1]; Leishmania donovani) was greater than 100 µM and the IC50 [2] was 44.6 µM.

For `CC1(C)C2CCC1(C)C(OC(=O)C=Cc1ccc(O)c(O)c1)C2` (stereo not drawn) [Compound 7, Caffeic Acid Isobornyl Ester], the IC50 (L. major amastigotes) was 47 µM, the “Selectivity index SI” value (L. major amastigotes) was 0.2 and the IC50 (L. major promastigotes; Leishmania major) was 45.8 µM. For the same compound, the IC50 ([1]; Leishmania donovani) was 34.8 µM, the IC50 [2] was 8.8 µM and the IC50 [3] was 10.9 µM.

Work on `COc1ccc(/C=C/C(=O)Oc2cc(C)ccc2C(C)C)cc1O` [Compound 11, Isoferulic Acid Thymyl Ester] yielded an IC50 (L. major promastigotes; Leishmania major) of 59.8 µM, an IC50 ([1]; Leishmania donovani) of 79.6 µM and an IC50 [2] of 45.6 µM.

With `CC1CCC(C(C)C)C(OC(=O)/C=C/c2ccccc2)C1` (stereo not drawn) [Compound 20, Cinnamic Acid Menthyl Ester] the IC50 (L. major amastigotes) was 19.5 µM, the “Selectivity index SI” value (L. major amastigotes) was greater than 6.4 and the IC50 (L. major promastigotes; Leishmania major) was 53.1 µM. It also gave an IC50 ([1]; Leishmania donovani) of 79.7 µM, an IC50 [2] of 44.8 µM and an IC50 [3] greater than 126 µM.

`COc1ccc(/C=C/C(=O)O[C@@H]2CC3CCC2(C)C3(C)C)cc1` (stereo partly drawn) [Compound 16, 4-Methoxycinnamic Acid (−)-Bornyl Ester] gave a melting point of 87 to 90 °C, an IC50 (L. major promastigotes; Leishmania major) of 60.9 µM and an IC50 ([1]; Leishmania donovani) greater than 100 µM. For the same compound, the IC50 [2] was 42.6 µM.

Compound `C=CCc1ccc(OC(=O)/C=C/c2ccccc2)c(OC)c1` [Compound 25, Cinnamic Acid Eugenyl Ester] has an IC50 (L. major promastigotes; Leishmania major) greater than 100 µM, an IC50 ([1]; Leishmania donovani) of 80.3 µM and an IC50 [2] of 32.2 µM.

For `CC1(C)C2CCC1(C)C(OC(=O)C=Cc1ccc(Br)cc1)C2` (stereo not drawn) [Compound 4, 4-Bromocinnamic Acid (−)-bornyl Ester], the melting point was 71 to 74 °C, the IC50 (L. major promastigotes; Leishmania major) was greater than 100 µM and the IC50 ([1]; Leishmania donovani) was greater than 100 µM. It also gave an IC50 [2] of 54.6 µM.

`CC1(C)C2CCC1(C)C(OC(=O)C=Cc1ccc(OCc3ccccc3)cc1)C2` (stereo not drawn) [Compound 6] showed a melting point of 93 to 95 °C, an IC50 (L. major promastigotes; Leishmania major) greater than 100 µM and an IC50 ([1]; Leishmania donovani) greater than 100 µM. The IC50 [2] was greater than 100 µM.

With `CCCCCCCCCCCCCCCCOP(=O)([O-])OCC[N+](C)(C)C` [miltefosine, reference compound] the IC50 (L. major amastigotes) was 33 µM, the “Selectivity index SI” value (L. major amastigotes) was 2.0 and the IC50 (L. major promastigotes; Leishmania major) was 36.2 µM. It also gave an IC50 [2] of 56.5 µM and an IC50 [3] of 65.5 µM.

For `CC(C)=CCCC(C)(OC(=O)C=Cc1ccccc1)C1CC=C(C)CC1` (stereo not drawn) [Compound 24, Cinnamic Acid Bisabolyl Ester], the IC50 (L. major promastigotes; Leishmania major) was greater than 100 µM, the IC50 ([1]; Leishmania donovani) was greater than 100 µM and the IC50 [2] was greater than 100 µM.

With `N=C(N)c1ccc(OCCCCCOc2ccc(C(=N)N)cc2)cc1` [pentamidine, reference compound] the IC50 (L. major promastigotes; Leishmania major) was 82 µM and the IC50 [2] was 38.6 µM.

In the case of `COc1ccc(/C=C/C(=O)OC2CC3CCC2(C)C3(C)C)cc1O` (stereo not drawn) [Compound 2, Isoferulic Acid (−)-bornyl Ester], the IC50 (L. major amastigotes) is reported as 39.2 µM, the “Selectivity index SI” value (L. major amastigotes) is reported as 1.2 and the IC50 (L. major promastigotes) is reported as 64.4 µM. The IC50 [1] was 41.3 µM, the IC50 (J774.1 murine cell line; mean of two independent experiments) was 48.7 µM and the IC50 [3] was 49 µM.

For `COc1ccc(C=CC(=O)OC2CC3CCC2(C)C3(C)C)cc1O` (stereo not drawn) [Compound 8, Isoferulic Acid Isobornyl Ester], the IC50 (L. major promastigotes; Leishmania major) was 60.6 µM, the IC50 ([1]; Leishmania donovani) was 74.5 µM and the IC50 [2] was 44.3 µM.

For `Cc1ccc(C(C)C)c(OC(=O)/C=C/c2ccccc2)c1` [Compound 19, Cinnamic Acid Thymyl Ester], the IC50 (L. major amastigotes) was 49.1 µM, the “Selectivity index SI” value (L. major amastigotes) was greater than 3.0 and the IC50 (L. major promastigotes; Leishmania major) was 55 µM. For the same compound, the IC50 ([1]; Leishmania donovani) was greater than 100 µM, the IC50 [2] was 44.8 µM and the IC50 [3] was greater than 148 µM.

Compound `CC(C)=CCC/C(C)=C/COC(=O)/C=C/c1ccccc1` [Compound 26, Cinnamic Acid Geranyl Ester] has an IC50 (L. major promastigotes; Leishmania major) greater than 100 µM, an IC50 ([1]; Leishmania donovani) of 41.9 µM and an IC50 [2] greater than 100 µM.

With `CC1(C)C2CCC1(C)[C@H](OC(=O)/C=C/c1ccc(Cl)cc1Cl)C2` (stereo partly drawn) [Compound 17, 2,4-Dichlorocinnamic Acid (−)-bornyl Ester] the melting point was 90 to 92 °C, the IC50 (L. major promastigotes; Leishmania major) was 80.5 µM and the IC50 ([1]; Leishmania donovani) was greater than 100 µM. It also gave an IC50 [2] of 60.6 µM.

In the case of `O=C(/C=C/c1ccccc1)Oc1ccc2ccccc2c1` [Compound 22], the melting point is reported as 109 to 110 °C, the IC50 (L. major promastigotes; Leishmania major) is reported as 67 µM and the IC50 ([1]; Leishmania donovani) is reported as 28.7 µM. The IC50 [2] was 44.5 µM.

For `O=C(/C=C/c1ccccc1)OC12CC3CC(CC(C3)C1)C2` [Compound 21, Cinnamic Acid Adamantyl Ester], the melting point was 66 °C, the IC50 (L. major promastigotes; Leishmania major) was 60 µM and the IC50 ([1]; Leishmania donovani) was greater than 100 µM. The IC50 [2] was 46.7 µM.

With `CC1(C)C2CCC1(C)[C@H](OC(=O)/C=C/c1ccc(O)c(O)c1)C2` (stereo partly drawn) [Compound 1, Caffeic Acid (−)-bornyl Ester] the protease inhibitory activity [4] was “showed protease inhibitory activity”, the IC50 (L. major amastigotes) was 47.6 µM and the “Selectivity index SI” value (L. major amastigotes) was 0.1. It also gave an IC50 (L. major promastigotes; Leishmania major) of 48.8 µM, an IC50 ([1]; Leishmania donovani) of 27.3 µM and an IC50 [2] of 8.3 µM. For the same compound, the IC50 [3] was 5.3 µM.

Compound `O=C(/C=C/c1ccccc1)OC1CCCCC1` [Compound 23, Cinnamic Acid Cyclohexyl Ester] has an IC50 (L. major promastigotes; Leishmania major) greater than 100 µM, an IC50 ([1]; Leishmania donovani) of 23.4 µM and an IC50 [2] greater than 100 µM.

With `CC1(C)C2CCC1(C)C(OC(=O)C=Cc1ccc(Cl)cc1)C2` (stereo not drawn) [Compound 3, 4-Chlorocinnamic Acid (−)-bornyl Ester] the melting point was 80 to 83 °C, the IC50 (L. major promastigotes; Leishmania major) was 71.2 µM and the IC50 ([1]; Leishmania donovani) was greater than 100 µM. For the same compound, the IC50 [2] was 49.5 µM.

Compound `C[C@@H]1[C@H](O)[C@@H](C)/C=C/C=C/C=C/C=C/C=C/C=C/C=C/[C@H](O[C@@H]2O[C@H](C)[C@@H](O)[C@H](N)[C@@H]2O)C[C@@H]2O[C@](O)(C[C@@H](O)C[C@@H](O)[C@H](O)CC[C@@H](O)C[C@@H](O)CC(=O)O[C@H]1C)C[C@H](O)[C@H]2C(=O)O` [amphotericin B, reference compound] has an IC50 ([1]; Leishmania donovani) of 0.4 µM.
